Results as given in ChEMBL document CHEMBL1629647, “Preclinical evaluation of GS-9160, a novel inhibitor of human immunodeficiency virus type 1 integrase” (Antimicrob Agents Chemother, 2009).

Tests used:
[1] = test system: Human immunodeficiency virus 1; assay: Selectivity ratio of EC50 for antiviral activity against EFV-resistant HIV1 selected after 7 passages to EC50 for antiviral activity against wild-type HIV1 3B; assay type: functional
[2] = test system: Human immunodeficiency virus 1; assay: Selectivity ratio of EC50 for antiviral activity against GS-9160-resistant HIV1 selected after 8 passages to EC50 for antiviral activity against wild-type HIV1 3B; assay type: functional
[3] = test system: Human immunodeficiency virus 1; assay: Selectivity ratio of EC50 for antiviral activity against GS-9160-resistant HIV1 selected after 9 passages to EC50 for antiviral activity against wild-type HIV1 3B; assay type: functional
[4] = test system: Human immunodeficiency virus 1; assay: Selectivity ratio of EC50 for antiviral activity against 3TC-resistant HIV1 selected after 4 passages to EC50 for antiviral activity against wild-type HIV1 3B; assay type: functional
[5] = test system: Human immunodeficiency virus 1; assay: Selectivity ratio of EC50 for antiviral activity against APV-resistant HIV1 selected after 2 passages to EC50 for antiviral activity against wild-type HIV1 3B; assay type: functional
[6] = test system: Human immunodeficiency virus 1; assay: Selectivity ratio of EC50 for antiviral activity against APV-resistant HIV1 selected after 4 passages to EC50 for antiviral activity against wild-type HIV1 3B; assay type: functional
[7] = test system: Human immunodeficiency virus 1; assay: Antiviral activity against HIV1 infected in SupT1 cells assessed as accumulation of late RT products after 12 hrs; assay type: functional, organism-based; settings: Human immunodeficiency virus 1, SUP-T1, 12 h
[8] = test system: Human immunodeficiency virus 1; assay: Antiviral activity against HIV1 infected in SupT1 cells assessed as accumulation of integrated junction products after 48 hrs by Alu-PCR assay; assay type: functional, organism-based; settings: Human immunodeficiency virus 1, SUP-T1, 48 h
[9] = test system: Human immunodeficiency virus 1; assay: Selectivity ratio of EC50 for antiviral activity against GS-9160-resistant HIV1 selected after 5 passages to EC50 for antiviral activity against wild-type HIV1 3B; assay type: functional
[10] = test system: Human immunodeficiency virus 1; assay: Selectivity ratio of EC50 for antiviral activity against 3TC-resistant HIV1 selected after 8 passages to EC50 for antiviral activity against wild-type HIV1 3B; assay type: functional
[11] = test system: Human immunodeficiency virus 1; assay: Selectivity ratio of EC50 for antiviral activity against GS-9160-resistant HIV1 selected after 6 passages to EC50 for antiviral activity against wild-type HIV1 3B; assay type: functional
[12] = test system: Human immunodeficiency virus 1; assay: Selectivity ratio of EC50 for antiviral activity against EFV-resistant HIV1 selected after 3 passages to EC50 for antiviral activity against wild-type HIV1 3B; assay type: functional
[13] = Cytotoxicity against human SupT1 cells infected with HIV1 3B; assay type: cell-based, SUP-T1; settings: SupT1 cells infected with HIV-1 3B
[14] = Cytotoxicity against human MT4 cells infected with HIV1 3B by three fold dilution method in presence of 10% FBS; assay type: cell-based; settings: MT4 cells infected with HIV-1 3B
[15] = test system: Human immunodeficiency virus 1; assay: Antiviral activity against HIV1 3B infected in human MT-2 cells by two fold dilution method in presence of 10% FBS, HSA and alpha1-AGP; assay type: functional, organism-based; settings: Human immunodeficiency virus 1, 3B, MT2
[16] = test system: Human immunodeficiency virus 1; assay: Antiviral activity against HIV1 3B infected in human MT-4 cells by two fold dilution method in presence of 10% FBS; assay type: functional, organism-based; settings: Human immunodeficiency virus 1, 3B, MT4
[17] = Cytotoxicity against human uninfected MT2 cells by three fold dilution method in presence of 10% FBS
[18] = test system: Human immunodeficiency virus 1; assay: Antiviral activity against HIV1 3B infected in human MT-2 cells by two fold dilution method in presence of 10% FBS; assay type: functional, organism-based; settings: Human immunodeficiency virus 1, 3B, MT2
[19] = test system: Human immunodeficiency virus 1; assay: Antiviral activity against 0.001 MOI HIV1 BAL infected in human T lymphocyte cells by p24 antigen ELISA in presence of 10% FBS, HSA and alpha1-AGP; assay type: functional, organism-based; settings: Human immunodeficiency virus 1, BAL
[20] = test system: Human immunodeficiency virus 1; assay: Antiviral activity against HIV1 3B infected in SupT1 cells assessed as fold increase in viral 2-LTR circles accumulation after […] postinfection by TaqMan real-time PCR; assay type: functional, SUP-T1
[21] = test system: Human immunodeficiency virus 1; assay: Antiviral activity against 0.04 MOI HIV1 3B infected in human MT-2 cells by […] dilution method in presence of 100% human serum; settings: Human immunodeficiency virus 1, 3B, MT2
[22] = Cytotoxicity against human T lymphocyte cells uninfected by XTT method in presence of 10% FBS
[23] = test system: Human immunodeficiency virus 1; assay: Antiviral activity against 0.001 MOI HIV1 BAL infected in human T lymphocyte cells by p24 antigen ELISA in presence of 10% FBS; assay type: functional, organism-based; settings: Human immunodeficiency virus 1, BAL
[24] = test system: Human immunodeficiency virus 1; assay: Antiviral activity against 0.01 MOI HIV1 3B infected in human MT-2 cells by two fold dilution method in presence of 100% human serum; assay type: functional, organism-based; settings: Human immunodeficiency virus 1, 3B, MT2
[25] = test system: Human immunodeficiency virus 1; assay: Antiviral activity against 0.02 MOI HIV1 3B infected in human MT-2 cells by two fold dilution method in presence of 100% human serum; assay type: functional, organism-based; settings: Human immunodeficiency virus 1, 3B, MT2
[26] = test system: Human immunodeficiency virus 1; assay: Selectivity ratio of EC50 for antiviral activity against HIV1 harboring E138K and Q148K mutation in catalytic core domain of integrase to EC50 for antiviral activity against wild-type HIV1 3B; assay type: functional
[27] = test system: Human immunodeficiency virus 1; assay: Selectivity ratio of EC50 for antiviral activity against HIV1 harboring Q148K mutation in catalytic core domain of integrase to EC50 for antiviral activity against wild-type HIV1 3B; assay type: functional
[28] = test system: Human immunodeficiency virus 1; assay: Selectivity ratio of EC50 for antiviral activity against HIV1 harboring E138K mutation in catalytic core domain of integrase to EC50 for antiviral activity against wild-type HIV1 3B; assay type: functional
[29] = test system: Human immunodeficiency virus 1; assay: Selectivity ratio of EC50 for antiviral activity against HIV1 harboring G140S and Q148H mutation in catalytic core domain of integrase to EC50 for antiviral activity against wild-type HIV1 3B; assay type: functional
[30] = test system: Human immunodeficiency virus 1; assay: Selectivity ratio of EC50 for antiviral activity against HIV1 harboring L74M and E92V mutation in catalytic core domain of integrase to EC50 for antiviral activity against wild-type HIV1 3B; assay type: functional
[31] = test system: Human immunodeficiency virus 1; assay: Selectivity ratio of EC50 for antiviral activity against HIV1 harboring E92Q mutation in catalytic core domain of integrase to EC50 for antiviral activity against wild-type HIV1 3B; assay type: functional
[32] = test system: Human immunodeficiency virus 1; assay: Selectivity ratio of EC50 for antiviral activity against HIV1 harboring L74M mutation in catalytic core domain of integrase to EC50 for antiviral activity against wild-type HIV1 3B; assay type: functional
[33] = test system: Human immunodeficiency virus 1; assay: Selectivity ratio of EC50 for antiviral activity against HIV1 harboring T66I mutation in catalytic core domain of integrase to EC50 for antiviral activity against wild-type HIV1 3B; assay type: functional
[34] = test system: Human immunodeficiency virus 1; assay: Selectivity ratio of EC50 for antiviral activity against HIV1 harboring N155S mutation in catalytic core domain of integrase to EC50 for antiviral activity against wild-type HIV1 3B; assay type: functional
[35] = test system: Human immunodeficiency virus 1; assay: Selectivity ratio of EC50 for antiviral activity against NRTI-resistant HIV1 harboring RTM184V mutant gene to EC50 for antiviral activity against wild-type HIV1 3B; assay type: functional
[36] = test system: Human immunodeficiency virus 1; assay: Selectivity ratio of EC50 for antiviral activity against NNRTI-resistant HIV1 harboring RTY181C mutant gene to EC50 for antiviral activity against wild-type HIV1 3B; assay type: functional
[37] = test system: Human immunodeficiency virus 1; assay: Selectivity ratio of EC50 for antiviral activity against HIV1 harboring N155H mutation in catalytic core domain of integrase to EC50 for antiviral activity against wild-type HIV1 3B; assay type: functional
[38] = test system: Human immunodeficiency virus 1; assay: Selectivity ratio of EC50 for antiviral activity against HIV1 harboring E92V and V151A mutation in catalytic core domain of integrase to EC50 for antiviral activity against wild-type HIV1 3B; assay type: functional
[39] = test system: Human immunodeficiency virus 1; assay: Selectivity ratio of EC50 for antiviral activity against PI-resistant HIV1 harboring […], V82A and L90M mutant gene to EC50 for antiviral activity against wild-type HIV1 3B; assay type: functional
[40] = test system: Human immunodeficiency virus 1; assay: Selectivity ratio of EC50 for antiviral activity against HIV1 harboring G140S mutation in catalytic core domain of integrase to EC50 for antiviral activity against wild-type HIV1 3B; assay type: functional
[41] = test system: Human immunodeficiency virus 1; assay: Selectivity ratio of EC50 for antiviral activity against HIV1 harboring E92V, G140S and V151A mutation in catalytic core domain of integrase to EC50 for antiviral activity against wild-type HIV1 3B; assay type: functional
[42] = test system: Human immunodeficiency virus 1; assay: Selectivity ratio of EC50 for antiviral activity against HIV1 harboring E92V mutation in catalytic core domain of integrase to EC50 for antiviral activity against wild-type HIV1 3B; assay type: functional
[43] = test system: Human immunodeficiency virus 1; assay: Selectivity ratio of EC50 for antiviral activity against HIV1 harboring V151A mutation in catalytic core domain of integrase to EC50 for antiviral activity against wild-type HIV1 3B; assay type: functional
[44] = test system: Human immunodeficiency virus 1; assay: Selectivity ratio of EC50 for antiviral activity against PI-resistant HIV1 harboring […], L90M mutant gene to EC50 for antiviral activity against wild-type HIV1 3B; assay type: functional
[45] = test system: Human immunodeficiency virus 1; assay: Selectivity ratio of EC50 for antiviral activity against NRTI-resistant HIV1 harboring RT-6TAMs mutant gene to EC50 for antiviral activity against wild-type HIV1 3B; assay type: functional
[46] = test system: Human immunodeficiency virus 1; assay: Selectivity ratio of EC50 for antiviral activity against NNRTI-resistant HIV1 harboring RTK103N mutant gene to EC50 for antiviral activity against wild-type HIV1 3B; assay type: functional
[47] = test system: Human immunodeficiency virus 1; assay: Selectivity ratio of EC50 for antiviral activity against NRTI-resistant HIV1 harboring RTK65R mutant gene to EC50 for antiviral activity against wild-type HIV1 3B; assay type: functional

CC(C)CN(C[C@@H](O)[C@H](Cc1ccccc1)NC(=O)O[C@H]1CCOC1)S(=O)(=O)c1ccc(N)cc1
Ratio EC50 [1]: 1.6 | Ratio EC50 [2]: 4 | Ratio EC50 [3]: 1.5 | Ratio EC50 [4]: 1.6 | Ratio EC50 [5]: 3.4 | Ratio EC50 [6]: 8.7 | EC50 [7]: > 1000 nM | EC50 [8]: > 1000 nM | Ratio EC50 [9]: 1 | Ratio EC50 [10]: 0.9 | Ratio EC50 [11]: 1.5 | Ratio EC50 [12]: 1.2 | CC50 [13]: 96000 nM

Cc1nnc(C(=O)NC(C)(C)c2nc(C(=O)NCc3ccc(F)cc3)c(O)c(=O)n2C)o1
CC50 [14]: 58200 nM | EC50 [15]: 18 nM | EC50 [16]: 8 nM | CC50 [17]: > 100000 nM | EC50 [18]: 3 nM

COc1cc2c(cc1Cc1cccc(Cl)c1F)c(=O)c(C(=O)O)cn2[C@@H](CO)C(C)C
CC50 [14]: 4000 nM | EC50 [19]: 16 nM | fold change (FC) [20]: 2.3 | EC50 [15]: 24 nM | EC50 [16]: 0.17 nM | EC50 [7]: > 1000 nM | EC50 [8]: 0.3 nM | EC50 [21]: 207 nM | CC50 [22]: 40000 nM | EC50 [23]: 0.2 nM | CC50 [17]: 8000 nM | EC50 [18]: 0.6 nM | EC50 [24]: 83 nM | CC50 [13]: 5300 nM | EC50 [25]: 121 nM

CC(C)c1nc(COC(N)=O)n(Cc2ccncc2)c1Sc1cc(Cl)cc(Cl)c1 [CAPRAVIRINE]
Ratio EC50 [26]: 3 | Ratio EC50 [27]: 1 | Ratio EC50 [28]: 3 | Ratio EC50 [29]: 0.2 | Ratio EC50 [30]: 3 | Ratio EC50 [31]: 1 | Ratio EC50 [32]: 1 | Ratio EC50 [33]: 2 | Ratio EC50 [34]: 6 | Ratio EC50 [35]: 1 | Ratio EC50 [36]: 89 | Ratio EC50 [37]: 6 | Ratio EC50 [38]: 2 | EC50 [18]: 0.2 nM | Ratio EC50 [39]: 1 | Ratio EC50 [40]: 2 | Ratio EC50 [41]: 3 | Ratio EC50 [42]: 3 | Ratio EC50 [43]: 4 | Ratio EC50 [44]: 1 | Ratio EC50 [45]: 762 | Ratio EC50 [46]: 0 | Ratio EC50 [47]: 0.4
